We go through 19 compounds from patent US8779129B2, “Triazinedione derivatives as GABAB receptor modulators” (Addex Pharma S.A., priority 2006, dated 2014).

By melting point is commonly meant the temperature of the solid-liquid transition. `COc1nn(-c2cccc(N3CCCC3=O)c2)c(=O)n(Cc2ccc(Cl)cc2)c1=O` [4.145, 4-(4-chlorobenzyl)-6-methoxy-2-(3-(2-oxopyrrolidin-1-yl)phenyl)-1,2,4-triazine-3,5(2H,4H)-dione] had a melting point of 91 to 93 °C.

Turning to `CC(=O)Nc1cccc(-n2ncc(=O)n(Cc3ccc(Cl)cc3F)c2=O)c1` [2.20, N-(3-(4-(4-chloro-2-fluorobenzyl)-3,5-dioxo-4,5-dihydro-1,2,4-triazin-2(3H)-yl)phenyl)acetamide], the melting point is 184 °C. The value for `COCc1nn(-c2cccc(NC(C)=O)c2)c(=O)n(Cc2ccc(Cl)cc2)c1=O` [5.16, N-(3-(4-(4-chlorobenzyl)-6-(methoxymethyl)-3,5-dioxo-4,5-dihydro-1,2,4-triazin-2(3H)-yl)phenyl)acetamide] was 97 °C; that for `CC(=O)Nc1cccc(-n2nc(C(=O)OC(C)C)c(=O)n(Cc3ccc(Cl)cc3)c2=O)c1` [5.18, Isopropyl 2-(3-acetamidophenyl)-4-(4-chlorobenzyl)-3,5-dioxo-2,3,4,5-tetrahydro-1,2,4-triazine-6-carboxylate] was 183 °C; that for `CC(=O)Nc1cccc(-n2ncc(=O)n(Cc3ccc(C#N)cc3)c2=O)c1` [2.05, N-(3-(4-(4-cyanobenzyl)-3,5-dioxo-4,5-dihydro-1,2,4-triazin-2(3H)-yl)phenyl)acetamide] was 184 to 185 °C. The value for `CC(=O)Nc1cccc(-n2nc(C#N)c(=O)n(Cc3ccc(Cl)cc3)c2=O)c1` [1.01, N-(3-(4-(4-chlorobenzyl)-6-cyano-3,5-dioxo-4,5-dihydro-1,2,4-triazin-2(3H)-yl)phenyl)acetamide] was 196 °C. As for `COCC(=O)Nc1cccc(-n2nc(OC)c(=O)n(Cc3ccc(Cl)cc3)c2=O)c1` [4.141, N-(3-(4-(4-chlorobenzyl)-6-methoxy-3,5-dioxo-4,5-dihydro-1,2,4-triazin-2(3H)-yl)phenyl)-2-methoxyacetamide], the melting point stood at 143 °C. To `CC(=O)Nc1cccc(-n2ncc(=O)n(Cc3ccc(Cl)cc3)c2=O)c1` [2.01, N-(3-(4-(4-chlorobenzyl)-3,5-dioxo-4,5-dihydro-1,2,4-triazin-2(3H)-yl)phenyl)acetamide] belongs 171 to 172 °C; to `COc1nn(-c2cccc(-c3noc(C)n3)c2)c(=O)n(Cc2ccc(Cl)cc2)c1=O` [4.146, 4-(4-chlorobenzyl)-6-methoxy-2-(3-(5-methyl-1,2,4-oxadiazol-3-yl)phenyl)-1,2,4-triazine-3,5(2H,4H)-dione], 163 to 165 °C. The value for `CC(=O)Nc1cccc(-n2nc(N(C)C)c(=O)n(Cc3ccc(Cl)cc3)c2=O)c1` [5.13, N-(3-(4-(4-chlorobenzyl)-6-(dimethylamino)-3,5-dioxo-4,5-dihydro-1,2,4-triazin-2(3H)-yl)phenyl)acetamide] was 189 to 190 °C; that for `CC(=O)Nc1cccc(-n2nc(C(C)C)c(=O)n(Cc3ccc(Cl)cc3)c2=O)c1` [5.01, N-(3-(4-(4-chlorobenzyl)-6-isopropyl-3,5-dioxo-4,5-dihydro-1,2,4-triazin-2(3H)-yl)phenyl)acetamide] was 178 °C. The compound `COc1nn(-c2ccccc2O)c(=O)n(Cc2ccc(Cl)cc2)c1=O` [4.143, 4-(4-chlorobenzyl)-2-(2-hydroxyphenyl)-6-methoxy-1,2,4-triazine-3,5(2H,4H)-dione] registered a melting point of 164 to 165 °C.

Consider `COc1nn(-c2cccc(NC(C)=O)c2)c(=O)n(Cc2ccc(Cl)cc2)c1=O` [4.01, N-(3-(4-(4-chlorobenzyl)-6-methoxy-3,5-dioxo-4,5-dihydro-1,2,4-triazin-2(3H)-yl)phenyl)acetamide], for which the melting point fell in the range of 190 to 191 °C. Turning to `COc1nn(-c2cccc(N(C)C(C)=O)c2)c(=O)n(Cc2ccc(Cl)cc2)c1=O` [4.133, N-(3-(4-(4-chlorobenzyl)-6-methoxy-3,5-dioxo-4,5-dihydro-1,2,4-triazin-2(3H)-yl)phenyl)-N-methylacetamide], the melting point was determined as 157 °C.

Consider `CC(=O)Nc1cccc(-n2nc(CN(C)C)c(=O)n(Cc3ccc(Cl)cc3)c2=O)c1.Cl`, for which the melting point was 143 °C. The value for `COc1nn(-c2cccc(NC(C)=O)c2)c(=O)n(Cc2ccc3c(c2)OC(F)(F)O3)c1=O` [4.127, N-(3-(4-((2,2-difluorobenzo[d][1,3]dioxol-5-yl)methyl)-6-methoxy-3,5-dioxo-4,5-dihydro-1,2,4-triazin-2(3H)-yl)phenyl)acetamide] was 184 °C; that for `CC(=O)Nc1cccc(-n2nc(C)c(=O)n(Cc3ccc(Cl)cc3)c2=O)c1` [3.01, N-(3-(4-(4-chlorobenzyl)-6-methyl-3,5-dioxo-4,5-dihydro-1,2,4-triazin-2(3H)-yl)phenyl)acetamide] was 168 °C. `COC(=O)c1nn(-c2cccc(NC(C)=O)c2)c(=O)n(Cc2ccc(Cl)cc2)c1=O` [5.17, Methyl 4-(4-chlorobenzyl)-2-(3-acetamidophenyl)-3,5-dioxo-2,3,4,5-tetrahydro-1,2,4-triazine-6-carboxylate] registered a melting point of 193 °C. `COc1nn(-c2cccc(Nc3nccs3)c2)c(=O)n(Cc2ccc(Cl)cc2)c1=O` [4.144, 4-(4-chlorobenzyl)-6-methoxy-2-(3-(thiazol-2-ylamino)phenyl)-1,2,4-triazine-3,5(2H,4H)-dione]: the melting point is 176 to 178 °C.
